Data reported in PMC11935913, “Silk Nanococoons: Bio‐Nanoreactors for Enzymatic Catalytic Reactions and Applications to Alcohol Intoxication” (Small Science, 2021).

Molecular target: T1, horseradish peroxidase (HRP) (Armoracia rusticana, UniProt P00433)
T1 construct: gene PRXC1A
T1 sequence (P00433 31-338): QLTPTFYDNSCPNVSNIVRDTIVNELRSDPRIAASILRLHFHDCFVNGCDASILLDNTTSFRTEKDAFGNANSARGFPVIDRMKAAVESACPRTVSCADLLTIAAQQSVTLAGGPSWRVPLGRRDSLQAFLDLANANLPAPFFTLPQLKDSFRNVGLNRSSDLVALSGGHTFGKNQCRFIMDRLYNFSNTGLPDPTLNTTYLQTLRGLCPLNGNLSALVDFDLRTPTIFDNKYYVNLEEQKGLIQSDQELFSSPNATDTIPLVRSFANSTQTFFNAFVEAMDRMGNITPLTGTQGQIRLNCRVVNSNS
Experiment: absorbance, plate reader, oxidation by H2O2
Type: biochemical
Conditions: H2O2 co-substrate

Structure (SMILES) | absorbance, plate reader, oxidation by H2O2 (enzyme in silk fibroin nanospheres) | absorbance, plate reader, oxidation by H2O2 (generated by GOx from glucose)
Cc1cc(-c2cc(C)c(N)c(C)c2)cc(C)c1N [3,3′,5,5′‐tetramethylbenzidine] | activity recovery of enzyme HRP in SENs was monitored by the oxidation of TMB | –
COc1cc(-c2ccc(N)c(OC)c2)ccc1N [o‐dianisidine] | – | the ODS or TMB gets oxidized by H2O2 under the catalysis of HRP
